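Interpolation was linear, between the two tested concentrations surrounding the appropriate level; five concentrations were tested over 48 hours in 96-well plates. GI50 = concentration required for 50% inhibition of growth.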 Active and inactive are the calls of the source. Cut-off read from the data, not from the text of the source: active = GI50 up to about 1.1 µM and inactive = higher.

These results are taken from ChEMBL document CHEMBL1201862, “PubChem BioAssay data set” (2004).

Holding throughout (test): NCI tumour cell line growth inhibition, 48 h
Experiment [1] has as its system OVCAR-3.
Experiment [2] has as its system SK-OV-3.
For experiment [3], the system named is HOP-62.
Experiment [4] concerns KM12.
Experiment [5] deals with Hs-578T.
Experiment [6] concerns ACHN.
Experiment [7] concerns BT-549.
The test system of experiment [8] is SNB-78.
In experiment [9] the test system is UACC-257.
The test system of experiment [10] is SNB-75.
In experiment [11] the test system is HCT-116.
Experiment [12] deals with NCI-H522.
The subject of experiment [13] is MDA-N.
Experiment [14] relates to SK-MEL-5.
The test system of experiment [15] is COLO 205.
Experiment [16] has as its system MOLT-4.
Experiment [17] deals with SF-539.
Experiment [18] relates to DU-145.
Experiment [19] has as its system RXF 393.
Experiment [20] relates to K562.

Consider `CCc1nc2cc(/N=N/c3c(O)ccc4ccccc34)ccc2[nH]1`, for which the GI50 in experiment [1] was 16.4 µM (inactive); in experiment [2] it was 24.7 µM (inactive); in experiment [3], 21.1 µM (inactive); in [4], 11.2 µM (inactive); in experiment [5] it was 21.1 µM (inactive); in experiment [6], 17.1 µM (inactive). Moreover, the GI50 in [7] was 18.7 µM (inactive); in experiment [8] it was 15.5 µM (inactive); in experiment [9], 14.5 µM (inactive); in experiment [10] it was 20.6 µM (inactive); in experiment [11], 15.5 µM (inactive); in [12], 18.1 µM (inactive). Moreover, the GI50 in [13] was 23.8 µM (inactive); in [14], 18.5 µM (inactive); in experiment [15], 21.2 µM (inactive); in experiment [16], 7.98 µM (inactive); in experiment [17], 18.1 µM (inactive); in experiment [18], 17 µM (inactive). Further, the figures for the GI50 in experiment [19] and in experiment [20] were 12.6 µM (inactive) and 8.59 µM (inactive), respectively.
Regarding `COC(=O)C(=O)CC(=O)CCn1ncc(Cl)c(Cl)c1=O`, the GI50 in [1] is 12.8 µM (inactive); in experiment [2], 31 µM (inactive); in [3], 22.7 µM (inactive); in experiment [4] it was 25.9 µM (inactive); in [6], 20.1 µM (inactive); in experiment [8] it was 20.5 µM (inactive). In addition, the GI50 in [9] is 15.8 µM (inactive); in [10], 20.8 µM (inactive); in [11], 15.1 µM (inactive); in [12], 0.57 µM (active); in experiment [14], 16.3 µM (inactive); in experiment [15], 14.3 µM (inactive). For the same compound, the GI50 in [16] is 6.19 µM (inactive); in experiment [17], 19.6 µM (inactive); in experiment [19], 20.2 µM (inactive); in experiment [20] it was 3.56 µM (inactive).
On to `O=C(O)c1ccccc1NS(=O)(=O)c1ccc([N+](=O)[O-])cc1`, for which the GI50 in experiment [1], in [2], in experiment [3], in experiment [4], in experiment [6] and in experiment [8] was > 100 µM (inactive) each time. Also, the GI50 in experiment [9], in experiment [10], in experiment [11], in [12], in experiment [14] and in experiment [15] was > 100 µM (inactive) throughout. Moreover, the GI50 in [16], in [17], in [19] and in [20] was > 100 µM (inactive) throughout.
